This is an account of results in US20070027205A1, “Diarylmethyl derivatives as potassium channel modulators” (priority 2003, published 2007).

In this test the target is T1, human intermediate-conductance Ca2+-activated K+ channels (hIK channels) (Homo sapiens, UniProt O15554).
T1 construct: expressed in transfected cells
Briefly: Block of IK channels, whole-cell patch-clamp. In kind it is cell-based. The note with it: hIK cloned from human placenta, stably expressed in HEK293 cells; Ki = koff/kon from kinetics of the block. On the procedure: In this example the ability of the compounds of the invention to inhibit human intermediate-conductance Ca^2+-activated K^+ channels (hIK channels) is examined.
hIK channels have been cloned from human placenta and stably expressed in HEK293 cells. The ionic current through the channels is recorded in the whole-cell mode of the patch-clamp technique.
A Ki value is calculated from the kinetics of the block.
The inhibition of the current is assumed to occur by a simple drug (D)−receptor (R) interaction after the following scheme: [drawing 3]
This is a simple bimolecular reaction, which integrated under non-equalibrium conditions are described by the equation: It=I0*(1−(C/C+(koff/kon)))*(1−exp(−(C* kon+koff)*t))) • wherein, • It=current at time t in nA • koff=off-rate in s^−1 • I0=basal current in nA • kon=on-rate in M^−1s^−1 • C=drug concentration in μM
By using the equation above, a fit to the time-course of the decrease in current yields the values koff and kon. Ki equals the ratio koff/kon, and Ki is the test value to be reported. At t=∞ (equalibrium) the equation simplifies to the Michaelis-Menten equation with Ki=IC50.
Background: The patch-clamp technique gives a direct electrical read-out from membranes.

Each structure is given as a SMILES string.

For `NC(CSC(c1ccc(F)cc1)(c1ccc(F)cc1)c1ccccc1F)=NO` [Compound 6, 2-[(2-Fluoro-phenyl)-bis-(4-fluoro-phenyl)-methanesulfanyl]-N-hydroxy acetamidine], the Ki (commonly a measure of affinity in units of concentration, obtained from inhibition or displacement) came out at 530 nM.

`N#CC(Cc1ccccn1)(c1ccc(F)cc1)c1ccc([N+](=O)[O-])c(C(F)(F)F)c1` (stereo not shown) [Compound 8, 2-(4Fluoro-phenyl)-2-(4-nitro-3-trifluoromethyl-phenyl)-3-pyridin-2-yl-propionitrile]: the affinity corresponds to a Ki of 65 nM. This Ki lies about 8.2-fold lower than the previous one.

The compound `N#CC(CC(=O)O)(c1ccc(F)cc1)c1ccc(F)cc1` [Compound 2, 3-Cyano-3,3-bis-(4-fluoro-phenyl)-propionic acid] showed a Ki of 2200 nM.

The compound `CCOC(=O)CCC(C#N)(c1ccc(F)cc1)c1ccc(F)cc1` [Compound 4, Ethyl 4-cyano-4,4-bis-(4-fluoro-phenyl) butyrate] gave a Ki of 1400 nM.
